According to patent US9981043B2, “Analgesic conjugates” (priority 2013, dated 2018):
Entries after “also recorded” stand apart in the source; their conditions may differ.

Legend:
control mice [1] = assay: Radiant tail flick antinociception, control (not pretreated) mice; format: in vivo; settings: controls; for ED50 (CI) i.c.v. / ED50 (CI) i.t.: tail flick
Procedure: (§1) Compounds were dissolved in 10% DMSO and then diluted to less than 1% DMSO in the test solutions. […] Compounds were administered in a 5-μl volume in conscious mice, either i.c.v. (Haley T J & McCormick W G, Br J Pharmacol Chemother, 1957, 12(1), 12-15) or i.t. (Hylden J L K & Wilcox G L, Eur. J. Pharmacol., 1980, 67(2-3), 313-316). Peak times were determined by comparing the percent maximal possible effect (% MPE) at 5, 10, 20 and 60 minutes after injection.
(§2) The tail flick assay is used first to test for antinociception as described by D'Amour and Smith (D'AMOUR FE & SMITH DL (1941) J. Pharmacol. Exp. Ther. 72(1):74-79) and modified by Dewey et al. (Dewey W L, Harris L S, Howes J F, & Nuite JA (1970) J. Pharmacol. Exp. Ther. 175(2):435-442). For the measurement of the tail-flick latency, mice are wrapped in a light cloth and held gently in one hand with the tail positioned in the apparatus (Tail Flick Analgesia Meter, Columbus Instruments, Columbus, Ohio) for radiant heat stimulus. The tail-flick response is elicited by applying radiant heat to the dorsal side of the tail. The intensity of the heat is set so that the mouse flicks its tail within 2 to 3 seconds. The test latency is measured before drug treatment (control) and again after the drug treatment (test) at the peak time of the compound; a 10 second maximum cut-off time is used to prevent damage to the tail. Antinociception is quantified according to the Harris L S & Pierson A K, J. Pharmacol. Exp. Ther., 1964, 143(2):141-148, as the percent maximal possible effect (% MPE), which is calculated as: % MPE=(Test−Control/10−Control)×100.
(§3) At least three groups of four to ten mice are used for each dose response curve. ED50 values with 95% confidence intervals (C.I.) are computed with GraphPad Prism 4 by using nonlinear regression methods.

LPS pretreated mice [2] = assay: Radiant tail flick antinociception, LPS pretreated mice; format: in vivo; settings: for % MPE / dose range of antinociception: LPS pretreated; for ED50 (CI) i.t. / ED50 (CI) i.c.v.: LPS pretreated (1 mg/kg 24 hours i.p.)
Procedure: as §1
The first group mice were pretreated with lipopolysaccaride (LPS, 1 mg/kg, i.p. from Escherichia coli 0111:B4; Sigma-Aldrich, St. Louis, Mo.) for 24 hours before testing for antinociception of compounds 2-6 (Seo Y-J, et al., Pharmacol., Biochem. Behav., 2008, 91, 121-127). This group was compared to a group without pretreatment.
as §2, §3

control mice [3] = assay: Acute (24 hour) tolerance, tail flick, control mice; format: in vivo; settings: controls
Procedure: (§4) Acute tolerance utilizing the radiant tail flick assay was measured by comparing the ED80-90 dose on day 1 to the same dose measured 24 hours later on the same mouse. For the LPS pretreated mice, no additional LPS was given to the mice for the acute tolerance test. […] However, the effect was less robust 72 hours after the initial LPS injection. Thus confirming that the acute tolerance test was accurate for the LPS pretreated mice.

LPS pretreated mice [4] = assay: Acute (24 hour) tolerance, tail flick, LPS pretreated mice; format: in vivo; settings: 24 hours
Procedure: as §4

[5] = test system: C3H mice with bone cancer; assay: von Frey mechanical hyperalgesia, bone cancer (fibrosarcoma) mice; format: in vivo; settings: bone cancer, 250 pmol/mouse, day 3
Procedure: The mouse hind paw model of bone cancer was the third model of pain (Wacnik P W, et al., Pain Research & Management, 2000, 16, 615-637; and Wacnik P W, et al., J Neurosci, 2001, 21(23), 9355-9366). Cell Culture: National Collection of Type Cultures (NCTC) clone 2472 fibrosarcoma cells, originally derived from a connective tissue tumor in a C3H mouse, were obtained from the American Type Cell Culture Collection (Rockville, Md.). Cells were grown and maintained in accordance with standard cell culturing techniques. NCTC cells were grown to 80-90% confluence in 75 cm^2 flasks (Corning, Lowell, Mass.) in Dulbecco's Modification of Eagles Medium (Invitrogen, Carlsbad, Calif.) fortified with 10% Horse Serum and sodium bicarbonate. Cell cultures were housed in a water-jacketed incubator with 5% carbon dioxide at 37° C.
Cells were prepared for implantation by first pouring off the culture medium and washing with phosphate-buffered saline (PBS). Trypsin was added to flask and placed in incubator for 3 minutes. Upon detachment, cells were suspended in an ample amount of culture medium to terminate enzymatic activity and centrifuged for 10 min at 1000 g. Fibrosarcoma cells were re-suspended in a known amount of PBS for counting, quantified on a hemacytometer, pelleted and re-suspended in PBS. Fibrosarcoma cells were again re-suspended to a final concentration of 2×10^5 cells in 20 μl. Initially, animals were anesthetized in a plexi-glass chamber using 3% isoflurane in 3 L/min oxygen. Once each mouse was completely anesthetized, a maintenance rate of 2% isoflurane in 1.5 L/min oxygen was maintained during the short implantation procedure. Tumor cells were manually injected by boring into the calcaneus bone using a 29½ gauge needle connected to a sterile 0.3 ml insulin syringe as previously described (19). Following injection, mice were allowed to recover in cages on a heating pad. Animals showing any signs of dysfunction (e.g. problems with ambulation, lethargy or excessive bleeding) or distress where euthanized according to CO2 guidelines.
C3H mice were was placed under a clean glass cup on a wire mesh grid and allowed to acclimate for thirty minutes. Mechanical hypersensitivity was tested using a von Frey filament #3.61 (which produces a force of […]) to the plantar surface of both the left and right hind paw with enough force to cause it to bow slightly. Starting with the right hind paw, the number of positive responses out of a total of 10 applications was recorded followed by the left hind paw. Positive response was indicated by a sharp withdrawal or flinching behavior of the paw. Baseline von Frey measurements were obtained prior to treatment with CFA, tumor and saline controls. […] Subsequent measurements were taken at various time points after intrathecal (i.t.) injection of test compounds on days 3, 7, 10, 14, 17, and 21. % MPE was calculated ((Time-point value−Day# baseline)/(Day 0 baseline−day# baseline))*100 (Smeester B A, Al-Gizawiy M, & Beitz A J (2012) Evidence-Based Complementary and Alternative Medicine 2012:16). Animals with saline injection served as controls for tumor cell implantation and tumor-induced nociception. Behavioral assessments were conducted during the light cycle at approximately the same time each day. The investigator performing the von Frey testing was blinded to the animal and compound injected.
A well-established rodent hind paw model of bone cancer pain (Wacnik P W, et al., J Neurosci. 2001, 21(23), 9355-66) was to examine the effects of representative bivalent ligands on tumor-induced nociception. The inbred C3H/He line is syngeneic to the fibrosarcoma cells used in these experiments and allows these cells to grow tumors without rejection. Male C3H mice were used for all experiments. Animals were maintained on a 12 hour light/dark cycle with food and water ad libitum.
Cells were prepared for implantation by first pouring off the culture medium and washing with phosphate-buffered saline (PBS). […]

C3H/HeNCrlVr mice = settings: intrathecal; spontaneous pain, mechanical allodynia, thermal hyperalgesia; cited from earlier work
live mice = assay: Respiratory depression (Mouse Ox O2 saturation); format: in vivo; settings: i.t.; dose 100 times the ED90
Procedure: Respiratory depression was measured in live mice using the Mouse Ox (small animal Oximeter from STARR Life Sciences Corp, Oakmont, Pa.). CollarClip™—(Un-Anesthetized Neck Sensor) for mice was used as the site for measuring the data. Day one of each experiment involved training the animals using a disposable CollarClip™. The collar was left on for approximately one hour. […] Mice were monitored for a 60-minute period, with measurements 10-20-30 and 60 minutes.
Respiratory depression was measured in live mice using the Mouse Ox (small animal Oximeter from STARR Life Sciences Corp, Oakmont, Pa.). CollarClip™ (Un-Anesthetized Neck Sensor) for mice was used as the site for measuring the data.
Day one of each experiment involved training the animals using a disposable CollarClip™. The collar was left on for approximately one hour.
Mice were monitored for a 60-minute period, with measurements 10-20-30 and 60 minutes.

Structure (SMILES) | Tolerance (control mice [3]; i.c.v.) | Tolerance (control mice [3]; i.t.) | Tolerance (LPS pretreated mice [4]; i.t.) | ED50 (CI) i.c.v. (control mice [1]; i.c.v.) [pmol/mouse] | ED50 (CI) i.t. (control mice [1]; i.t.) [pmol/mouse] | ED50 (CI) i.t. (LPS pretreated mice [2]; i.t.) [pmol/mouse] | dose range of antinociception (LPS pretreated mice [2]; i.t.) | ED50 (CI) i.c.v. (LPS pretreated mice [2]; i.c.v.) [pmol/mouse] | also measured
COc1cccc(C#Cc2cccc(C)n2)c1 [Compound 2, 2-((3-methoxyphenyl)ethynyl)-6-methylpyridine, reference compound] |  |  |  |  |  |  |  |  | % MPE (control mice [1]; i.c.v., 250 pmol/mouse): 14.59 ± 4.63% MPE; % MPE (control mice [1]; i.t., 250 pmol/mouse): 13.27 ± 3.39% MPE; % MPE (LPS pretreated mice [2]; i.t., 250 pmol/mouse): 21.96 ± 10.50% MPE
Cc1cccc(C#Cc2cccc(OCCNC(=O)COCC(=O)N[C@H]3CC[C@@]4(O)C5Cc6ccc(O)c7c6[C@@]4(CCN5C)[C@H]3O7)c2)n1 [Compound 3, N-((4aS,7S,7aR,12bS)-4a,9-dihydroxy-3-methyl-2,3,4,4a,5,6,7,7a-octahydro-1H-4,12-methanobenzofuro[3,2-e]isoquinolin-7-yl)-2-(2-((2-(3-((6-methylpyridin-2-yl)ethynyl)phenoxy)ethyl)amino)-2-oxoethoxy)acetamide] | Tolerance | No Tolerance | Tolerance was also observed; also recorded: exhibited tolerance | 529.6 | 114.7 | 8.17 | nmol range |  | % MPE (LPS pretreated mice [2]; i.c.v., 500 pmol/mouse): 56.86 ± 8.95% MPE
Cc1cccc(C#Cc2cccc(OCCNC(=O)COCC(=O)NCCNC(=O)COCC(=O)N[C@H]3CC[C@@]4(O)C5Cc6ccc(O)c7c6[C@@]4(CCN5C)[C@H]3O7)c2)n1 [Compound 4a, N-((4aS,7S,7aR,12bS)-4a,9-dihydroxy-3-methyl-2,3,4,4a,5,6,7,7a-octahydro-1H-4,12-methanobenzofuro[3,2-e]isoquinolin-7-yl)-2-((14-(3-((6-methylpyridin-2-yl)ethynyl)phenoxy)-2,7,11-trioxo-9-oxa-3,6,12-triazatetradecyl)oxy)acetamide] | Tolerance | Tolerance | created tolerance; also recorded: exhibited tolerance | 119.50 | 34.31 | 20.57 | nmol range | 80.85 | Tolerance (LPS pretreated mice [4]; i.c.v.): Tolerance
Cc1cccc(C#Cc2cccc(OCCNC(=O)COCC(=O)NCCCNC(=O)COCC(=O)N[C@H]3CC[C@@]4(O)C5Cc6ccc(O)c7c6[C@@]4(CCN5C)[C@H]3O7)c2)n1 [Compound 4b, N-((4aS,7S,7aR,12bS)-4a,9-dihydroxy-3-methyl-2,3,4,4a,5,6,7,7a-octahydro-1H-4,12-methanobenzofuro[3,2-e]isoquinolin-7-yl)-2-((1-(3-((6-methylpyridin-2-yl)ethynyl)phenoxy)-4,8,14-trioxo-6-oxa-3,9,13-triazapentadecan-15-yl)oxy)acetamide] | No Tolerance | No Tolerance | devoid of tolerance; also recorded: No Tolerance | 113.3 | 36.08 | 10.08 | nmol range | 64.36 | Tolerance (LPS pretreated mice [4]; i.c.v.): No Tolerance
Cc1cccc(C#Cc2cccc(OCCNC(=O)COCC(=O)NCCCCCCCNC(=O)COCC(=O)N[C@H]3CC[C@@]4(O)C5Cc6ccc(O)c7c6[C@@]4(CCN5C)[C@H]3O7)c2)n1 [Compound 4d, N-((4aS,7S,7aR,12bS)-4a,9-dihydroxy-3-methyl-2,3,4,4a,5,6,7,7a-octahydro-1H-4,12-methanobenzofuro[3,2-e]isoquinolin-7-yl)-2-((1-(3-((6-methylpyridin-2-yl)ethynyl)phenoxy)-4,8,18-trioxo-6-oxa-3,9,17-triazanonadecan-19-yl)oxy)acetamide] |  | No tolerance | devoid of tolerance; also recorded: No tolerance |  | 132.7 |  | nmol range | 411.9 | % MPE (control mice [1]; i.c.v., 1000 pmol): 53.76 ± 16.36% MPE
CNC(=O)COCC(=O)NCCCNC(=O)COCC(=O)NCCOc1cccc(C#Cc2cccc(C)n2)c1 [Compound 6, N-methyl-2-(1-(3-((6-methylpyridin-2-yl)ethynyl)phenoxy)-4,8,14-trioxo-6-oxa-3,9,13-triazapentadecan-15-yloxy)acetamide] |  |  | No tolerance |  |  | 548.7 |  |  | % MPE (control mice [1]; i.c.v., 250 pmol/mouse): 24.87 ± 11.77% MPE; % MPE (control mice [1]; i.t., 2500 pmol/mouse): 26.13 ± 7.27% MPE; % MPE (LPS pretreated mice [2]; i.c.v., 2500 pmol/mouse): 38.83 ± 11.59% MPE; % MPE [5]: 17.59±18.24 % MPE
Cc1cccc(C#Cc2ccccc2)n1 [MPEP] |  |  |  |  |  |  |  |  | effect on bone cancer-evoked pain (C3H/HeNCrlVr mice): attenuated bone cancer-evoked spontaneous pain
CN1CC[C@]23c4c5ccc(O)c4O[C@H]2[C@@H](O)C=C[C@H]3[C@H]1C5 [Morphine, reference compound] |  |  |  |  |  |  |  |  | % of mice with O2 Saturation less than 90% (live mice): 50%
